{
  "source": "patent US20080076772A1",
  "about": "“Anti-Inflammatory Agents” (Pharma Mar S.A. Sociedad Unipersonal, priority 2004, published 2008)",
  "key": {"CCL2 [1]": {"test_system": "CCL2", "test": "CCL2 production by TAM (ELISA)", "format": "cell-based, human", "details": "16 h, n=4", "text": "Tumour-associated macrophages (TAM) and tumour cells were isolated from the ascitic fluid of patients with diagnosed ovarian adenocarcinoma, admitted to the Clinic of Obstetrics and Gynecology of the University of Milan-Bicocca, S Gerardo Hospital. Cells contained in the ascitic fluid were centrifuged and isolated by differential density gradients of Ficoll and Percoll, and plastic adherence as previously described (see Allavena, P., Peccatori, F., Maggioni, D., Erroi, A., Sironi, M., Colombo, N., Lissoni, A., Galazka, A., Meiers, W., Mangioni, C., et al. Intraperitoneal recombinant gamma-interferon in patients with recurrent ascitic ovarian carcinoma: modulation of cytotoxicity and cytokine production in tumour-associated effectors and of major histocompatibility antigen expression on tumour cells. Cancer Res, 50: 7318-7323, 1990). Purity of TAM and tumour cell preparations was usually>65±10% as defined by morphology and phenotype analysis. Cells were treated with ecteinascidin 743 at the indicated concentrations and cultured for 1-5 days, as specified in figure legends. […]\nMonocytes, macrophages and TAM were stimulated with 100 ng/ml LPS to induce maximal cytokine production. Determination of cytokines CCL2, TNF and IL-6 was measured by specific ELISA following the manufacturer's instructions. […]"}, "monocytes": {"test_system": "monocytes", "test": "Apoptosis of monocytes (Annexin V / PI staining)", "format": "cell-based, human", "details": "monocytes exposed to drug", "protocol": "Cells exposed to treatments were fixed with ethanol 70%, washed in PBS and stained with propidium iodide (PI) solution containing 10 ug/ml PI in PBS and 25 μl RNAse 10,000 units, overnight in the dark. PI incorporation was evaluated on at least 20,000 cells/sample using a FACS Calibur instrument (Becton Dickinson, Sunnyvale, Calif., USA), with a bandpass filter at 620 nm. Apoptosis was detected by staining with AnnexinV and PI. FACS analysis was performed using a bandpass filter 530 and 620 nm for green (AnnexinV) and red (PI) fluorescence respectively, in combination with a […] dichroic mirror."}, "CCL2 [2]": {"test_system": "CCL2", "test": "CCL2 production by LPS-stimulated in vitro differentiated macrophages (ELISA)", "format": "cell-based", "details": "Homo sapiens, Macrophage; 5 nM, LPS 100 ng/ml, 16 h, n=5", "protocol": "Supernatants of untreated cells or cells treated with ecteinascidin 743 or other anti-neoplastic agents were collected after 24 h culture and frozen. Monocytes, macrophages and TAM were stimulated with 100 ng/ml LPS to induce maximal cytokine production. Determination of cytokines CCL2, TNF and IL-6 was measured by specific ELISA following the manufacturer's instructions.\nMonocytes and in vitro differentiated macrophages were stimulated with LPS (100 ng/ml). After 1 h LPS stimulation they were treated with ecteinascidin 743. After 16 h incubation, cell supernatants were harvested and tested in ELISA. Under these treatment conditions cell viability was usually >85% for concentrations up to 5 nM. […] Mean inhibition at 5 nM, for monocytes, was 65% (range 50-80%, n=5) and was 50% (range 25-75%, n=5) for in vitro differentiated macrophages. Results are mean+/−SE of 3-5 experiments"}, "TNF mRNA": {"test_system": "TNF mRNA", "test": "Real time-PCR of TNF transcripts in LPS-stimulated monocytes", "format": "cell-based, human", "text": "To verify whether the inhibitory effect of ecteinascidin 743 on cytokine production was at the transcriptional level, we analyzed mRNA of CCL2 and TNF from LPS-stimulated macrophages by real time-PCR of CCL2 and TNF transcripts in LPS-stimulated monocytes exposed to ecteinascidin 743."}, "[3]": {"test_system": "macrophage differentiation", "test": "In vivo treatment of tumour patients, in vitro differentiation of their monocytes to macrophages", "design": "species or system human; % inhibition of macrophage differentiation referred to cells before infusion: concentration or dose not given beside the values", "details": "for Absolute numbers of marker positive macrophages/10,000 cells, Exposure to ecteinascidin 743: end of 3-h infusion, 5 days M-CSF", "protocol": "Expression of cell membrane markers was performed by immunofluoresce and analyzed by Flow Cytometry. Cells were incubated with anti-CD14, anti-CD16, anti-CD68, anti-CD206 (mannose receptor) and then with FITC-goat anti-mouse Ig as described. At least 10,000 cells were analyzed.\nPatients with sarcoma or ovarian cancer undergoing Phase II trial with ecteinascidin 743, were admitted to the European Oncology institute, Milano, Italy. Patients received ecteinascidin 743 ([…]) in a 3-h infusion. Blood samples (40 ml) were collected immediately before the treatment and at the end of the infusion (+3 h). Blood samples were immediately processed and Percoll purified monocytes (usually 10^6 cells) were cultured with M-CSF (20 ng/ml) for 5 days. Differentiated cells were harvested, counted and analyzed for phenotype expression, as described above. Results are presented as absolute numbers of marker-positive cells/10,000 cells.\nTo validate the above in vitro findings we tested whether the in vivo administration of ecteinascidin 743 in tumour patients could have measurable effects on monocyte viability and capacity to macrophage differentiation in vitro. A phase II trial with ecteinascidin 743 is currently underway in advanced ovarian adenocarcinoma patients who had failed two different cycles of conventional cis-platin and taxol-based chemotherapy. Tumour patients selected for this study were treated with 1300 ug/ml/m2 of ecteinascidin 743. Blood samples from patients were drawn just before drug administration and at the end of a 3-hour infusion. Purified monocytes were immediately isolated and cultured with M-CSF (20 ng/ml) for 5 days to induce macrophage differentiation and then analalyzed for phenotype expression. […] The data shown are the absolute numbers of marker positive cells for a total of 10,000 input cells."}},
  "data": [
    {"smiles": "COc1cc2c(cc1O)CCN[C@]21CS[C@@H]2c3c(OC(C)=O)c(C)c4c(c3[C@H](COC1=O)N1[C@@H]2[C@H]2c3c(cc(C)c(OC)c3O)C[C@@H]([C@@H]1O)N2C)OCO4", "note": "[ecteinascidin 743]", "values": [
      {"measurement": "reduction of LPS-stimulated production of CCL2 by TAM", "setting": "CCL2 [1]; LPS 100 ng/ml", "result": 50, "unit": "%"},
      {"measurement": "reduction of constitutive production of CCL2 by TAM", "setting": "CCL2 [1]; no LPS", "result": 43, "unit": "%"},
      {"measurement": "Annexin V staining of dying monocytes (apoptosis)", "setting": "monocytes", "result": "stained positive for Annexin V"},
      {"measurement": "inhibition at 0.005 µM", "setting": "CCL2 [2]", "result": 50, "unit": "%"},
      {"measurement": "TNF mRNA", "setting": "TNF mRNA", "result": "unaffected"},
      {"measurement": "subjects whose monocytes showed decreased macrophage differentiation after treatment", "setting": "[3]; of 12 evaluable patients, blood at end of 3-hour infusion", "result": 6},
      {"measurement": "% inhibition of macrophage differentiation referred to cells before infusion", "setting": "[3]; patient UPN 1, CD16", "result": 60, "unit": "%"},
      {"measurement": "Absolute numbers of marker positive macrophages/10,000 cells, Exposure to ecteinascidin 743", "setting": "[3]; patient UPN 1, CD16", "result": "1248 /10,000 cells"},
      {"measurement": "% inhibition of macrophage differentiation referred to cells before infusion", "setting": "[3]; patient UPN 1, CD68", "result": 45, "unit": "%"},
      {"measurement": "Absolute numbers of marker positive macrophages/10,000 cells, Exposure to ecteinascidin 743", "setting": "[3]; patient UPN 1, CD68", "result": "1473 /10,000 cells"},
      {"measurement": "% inhibition of macrophage differentiation referred to cells before infusion", "setting": "[3]; patient UPN 1, CD206", "result": 88, "unit": "%"},
      {"measurement": "Absolute numbers of marker positive macrophages/10,000 cells, Exposure to ecteinascidin 743", "setting": "[3]; patient UPN 1, CD206", "result": "550 /10,000 cells"},
      {"measurement": "% inhibition of macrophage differentiation referred to cells before infusion", "setting": "[3]; patient UPN 2, CD16", "result": 60, "unit": "%"},
      {"measurement": "Absolute numbers of marker positive macrophages/10,000 cells, Exposure to ecteinascidin 743", "setting": "[3]; patient UPN 2, CD16", "result": "1105 /10,000 cells"},
      {"measurement": "% inhibition of macrophage differentiation referred to cells before infusion", "setting": "[3]; patient UPN 2, CD68", "result": 70, "unit": "%"},
      {"measurement": "Absolute numbers of marker positive macrophages/10,000 cells, Exposure to ecteinascidin 743", "setting": "[3]; patient UPN 2, CD68", "result": "1060 /10,000 cells"},
      {"measurement": "% inhibition of macrophage differentiation referred to cells before infusion", "setting": "[3]; patient UPN 2, CD206", "result": 79, "unit": "%"},
      {"measurement": "Absolute numbers of marker positive macrophages/10,000 cells, Exposure to ecteinascidin 743", "setting": "[3]; patient UPN 2, CD206", "result": "595 /10,000 cells"},
      {"measurement": "% inhibition of macrophage differentiation referred to cells before infusion", "setting": "[3]; patient UPN 3, CD68", "result": 80, "unit": "%"},
      {"measurement": "Absolute numbers of marker positive macrophages/10,000 cells, Exposure to ecteinascidin 743", "setting": "[3]; patient UPN 3, CD68", "result": "632 /10,000 cells"},
      {"measurement": "% inhibition of macrophage differentiation referred to cells before infusion", "setting": "[3]; patient UPN 3, CD206", "result": 87, "unit": "%"},
      {"measurement": "Absolute numbers of marker positive macrophages/10,000 cells, Exposure to ecteinascidin 743", "setting": "[3]; patient UPN 3, CD206", "result": "474 /10,000 cells"},
      {"measurement": "% inhibition of macrophage differentiation referred to cells before infusion", "setting": "[3]; patient UPN 4, CD16", "result": 41, "unit": "%"},
      {"measurement": "Absolute numbers of marker positive macrophages/10,000 cells, Exposure to ecteinascidin 743", "setting": "[3]; patient UPN 4, CD16", "result": "3050 /10,000 cells"},
      {"measurement": "% inhibition of macrophage differentiation referred to cells before infusion", "setting": "[3]; patient UPN 4, CD68", "result": 55, "unit": "%"},
      {"measurement": "Absolute numbers of marker positive macrophages/10,000 cells, Exposure to ecteinascidin 743", "setting": "[3]; patient UPN 4, CD68", "result": "2460 /10,000 cells"},
      {"measurement": "% inhibition of macrophage differentiation referred to cells before infusion", "setting": "[3]; patient UPN 5, CD16", "result": 63, "unit": "%"},
      {"measurement": "Absolute numbers of marker positive macrophages/10,000 cells, Exposure to ecteinascidin 743", "setting": "[3]; patient UPN 5, CD16", "result": "594 /10,000 cells"},
      {"measurement": "% inhibition of macrophage differentiation referred to cells before infusion", "setting": "[3]; patient UPN 5, CD68", "result": 50, "unit": "%"},
      {"measurement": "Absolute numbers of marker positive macrophages/10,000 cells, Exposure to ecteinascidin 743", "setting": "[3]; patient UPN 5, CD68", "result": "815 /10,000 cells"},
      {"measurement": "% inhibition of macrophage differentiation referred to cells before infusion", "setting": "[3]; patient UPN 6, CD16", "result": 83, "unit": "%"},
      {"measurement": "Absolute numbers of marker positive macrophages/10,000 cells, Exposure to ecteinascidin 743", "setting": "[3]; patient UPN 6, CD16", "result": "480 /10,000 cells"},
      {"measurement": "% inhibition of macrophage differentiation referred to cells before infusion", "setting": "[3]; patient UPN 6, CD68", "result": 79, "unit": "%"},
      {"measurement": "Absolute numbers of marker positive macrophages/10,000 cells, Exposure to ecteinascidin 743", "setting": "[3]; patient UPN 6, CD68", "result": "505 /10,000 cells"}
    ]}
  ]
}
